The source of these data is patent US20240116985A1, “STAPLED PEPTIDES AND METHODS THEREOF” (priority 2020, published 2024).

Converted amounts (≈) assume the structure as drawn.

A short description of this data set: Solubility in PBS. Type of data set: physicochemical. The following applies: for solubility at 15 min: Solubility (uM). On the procedure: After ultracentrifugation of the PBS solution, the supernatant was analyzed by HPLC and compared to an HPLC injection 50 μM peptide DMSO solution. Solubility was determined by: [(Area of PBS peak)/(Area of DMSO peak)]*50 uM.

As a reminder, the Solubility is the dissolved amount per volume that the medium holds. What is called solubility is the concentration that dissolves in the medium under given conditions. Higher therefore signals a readily soluble substance.

As to `CC(=O)N1CCC[C@]12CC=CCCCC1(CCCC=CCCCOC(=O)N3CC[C@@](C(=O)N[C@@H](Cc4ccsc4)C(=O)N[C@@H](Cc4csc5ccccc45)C(=O)N[C@@H](CCC(N)=O)C(N)=O)(C3)NC(=O)[C@H](CC(N)=O)NC(=O)[C@H](Cc3ccccc3)NC(=O)[C@H](C)NC(=O)[C@H](C)NC(=O)[C@H](CC(=O)O)NC(=O)[C@H](CCN)NC1=O)NC(=O)[C@H](CC(C)(C)C)NC(=O)[C@H](CC(=O)O)NC2=O` (stereo partly drawn) [I-1216, Ac-PL3-Asp-Npg-B5-Dab-Asp-Ala-Ala-Phe-Asn-PyrS2-3Thi-BztA-Gln-NH2], the “Solubility” value turned out to be 10 µM (≈ 19 µg/mL).

As to `CC(=O)N1CCC[C@]12CC=CCCCC1(CCCC=CCCCOC(=O)N3CC[C@@](C(=O)N[C@@H](Cc4ccsc4)C(=O)N[C@@H](Cc4csc5ccccc45)C(=O)N[C@@H](CCC(N)=O)C(N)=O)(C3)NC(=O)[C@H](CC(C)C)NC(=O)[C@H](Cc3ccccc3)NC(=O)[C@H](C)NC(=O)[C@H](C)NC(=O)[C@H](CC(=O)O)NC(=O)[C@H](CCN)NC1=O)NC(=O)[C@H](CC(C)(C)C)NC(=O)[C@H](CC(=O)O)NC2=O` (stereo partly drawn) [I-1217, Ac-PL3-Asp-Npg-B5-Dab-Asp-Ala-Ala-Phe-Leu-PyrS2-3Thi-BztA-Gln-NH2], the solubility at 15 min came to 15 µM (≈ 28.5 µg/mL).

For `CC(=O)N1CCC[C@]12CC=CCCCC1(CCCC=CCCCOC(=O)N3CC[C@@](C(=O)N[C@@H](Cc4ccccc4)C(=O)N[C@@H](Cc4cccc5ccccc45)C(=O)N[C@@H](CCC(N)=O)C(N)=O)(C3)NC(=O)[C@H](CC(C)C)NC(=O)[C@H](Cc3ccccc3)NC(=O)[C@H](C)NC(=O)[C@H](C)NC(=O)[C@H]([C@@H](C)O)NC(=O)[C@H](CC(=O)O)NC1=O)NC(=O)[C@H](CC(C)(C)C)NC(=O)[C@H](CC(N)=O)NC2=O` (stereo partly drawn) [I-1290, Ac-PL3-Asn-Npg-B5-Asp-Thr-Ala-Ala-Phe-Leu-PyrS2-Phe-1NapA-Gln-NH2], the “Solubility” value turned out to be 10 µM (≈ 18.9 µg/mL).

Turning to `CC(=O)N1CCC[C@]12CC=CCCCC1(CCCC=CCCCOC(=O)N3CC[C@@](C(=O)N[C@@H](Cc4ccccc4)C(=O)N[C@@H](Cc4csc5ccccc45)C(=O)N[C@@H](CCC(N)=O)C(N)=O)(C3)NC(=O)[C@H](CC(C)C)NC(=O)[C@H](Cc3ccccc3)NC(=O)[C@H](C)NC(=O)[C@H](C)NC(=O)[C@H]([C@@H](C)O)NC(=O)[C@H](CC(N)=O)NC1=O)NC(=O)[C@H](CC(C)(C)C)NC(=O)[C@H](CC(=O)O)NC2=O` (stereo partly drawn) [I-1294, Ac-PL3-Asp-Npg-B5-Asn-Thr-Ala-Ala-Phe-Leu-PyrS2-Phe-BztA-Gln-NH2], the “Solubility” value was 10 µM (≈ 19 µg/mL).

As to `CC(=O)N1CCC[C@]12CC=CCCCC1(CCCC=CCCCOC(=O)N3CC[C@@](C(=O)N[C@@H](Cc4ccccc4)C(=O)N[C@@H](Cc4cccc5ccccc45)C(=O)N[C@@H](CCC(N)=O)C(N)=O)(C3)NC(=O)[C@H](CC(C)C)NC(=O)[C@H](Cc3ccccc3)NC(=O)[C@H](C)NC(=O)[C@H](C)NC(=O)[C@H]([C@@H](C)O)NC(=O)[C@H](CC(N)=O)NC1=O)NC(=O)[C@H](CC(C)(C)C)NC(=O)[C@H](CC(=O)O)NC2=O` (stereo partly drawn) [I-1298, Ac-PL3-Asp-Npg-B5-Asn-Thr-Ala-Ala-Phe-Leu-PyrS2-Phe-1NapA-Gln-NH2], the “Solubility” value came out at 10 µM (≈ 18.9 µg/mL).

`CC(=O)N1CCC[C@]12CC=CCCCC1(CCCC=CCCCOC(=O)N3CC[C@@](C(=O)N[C@@H](Cc4ccccc4Br)C(=O)N[C@@H](Cc4csc5ccccc45)C(=O)N[C@@H](CCC(N)=O)C(N)=O)(C3)NC(=O)[C@H](CC(C)C)NC(=O)[C@H](Cc3ccccc3)NC(=O)[C@H](C)NC(=O)[C@H](C)NC(=O)[C@H](CC(=O)O)NC(=O)[C@H](CC(=O)O)NC1=O)NC(=O)[C@H](CC(C)(C)C)NC(=O)[C@H](CC(=O)O)NC2=O` (stereo partly drawn) [I-1324, PL3-Asp-Npg-B5-Asp-Asp-Ala-Ala-Phe-Leu-PyrS2-2BrF-BztA-Gln-NH2] registered a solubility at 15 min of 25 µM (≈ 49.8 µg/mL).

`CC(=O)N1CCC[C@]12CC=CCCCC1(CCCC=CCCCOC(=O)N3CC[C@@](C(=O)N[C@@H](Cc4ccccc4Br)C(=O)N[C@@H](Cc4csc5ccccc45)C(=O)N[C@@H](CCC(N)=O)C(N)=O)(C3)NC(=O)[C@H](Cc3ccccc3)NC(=O)[C@H](Cc3ccccc3)NC(=O)[C@H](C)NC(=O)[C@H](C)NC(=O)[C@H](CC(=O)O)NC(=O)[C@H](CC(=O)O)NC1=O)NC(=O)[C@H](CC(C)(C)C)NC(=O)[C@H](CC(=O)O)NC2=O` (stereo partly drawn) [I-1325, PL3-Asp-Npg-B5-Asp-Asp-Ala-Ala-Phe-Phe-PyrS2-2BrF-BztA-Gln-NH2] yielded a solubility at 15 min of 12 µM (≈ 24.3 µg/mL).

In turn, `COc1ccccc1C[C@H](NC(=O)[C@]12CCN(C1)C(=O)OCCCC=CCCCC1(CCCC=CC[C@]3(CCCN3C(C)=O)C(=O)N[C@@H](CC(=O)O)C(=O)N[C@@H](CC(C)(C)C)C(=O)N1)C(=O)N[C@@H](CC(=O)O)C(=O)N[C@@H](CC(=O)O)C(=O)N[C@@H](C)C(=O)N[C@@H](C)C(=O)N[C@@H](Cc1ccccc1)C(=O)N[C@@H](CC(C)C)C(=O)N2)C(=O)N[C@@H](Cc1csc2ccccc12)C(=O)N[C@@H](CCC(N)=O)C(N)=O` (stereo partly drawn) [I-1327, PL3-Asp-Npg-B5-Asp-Asp-Ala-Ala-Phe-Leu-PyrS2-2OMeF-BztA-Gln-NH2] displayed a solubility at 15 min of 39 µM (≈ 75.7 µg/mL).

`COc1ccccc1C[C@H](NC(=O)[C@]12CCN(C1)C(=O)OCCCC=CCCCC1(CCCC=CC[C@]3(CCCN3C(C)=O)C(=O)N[C@@H](CC(=O)O)C(=O)N[C@@H](CC(C)(C)C)C(=O)N1)C(=O)N[C@@H](CC(=O)O)C(=O)N[C@@H](CC(=O)O)C(=O)N[C@@H](C)C(=O)N[C@@H](C)C(=O)N[C@@H](Cc1ccccc1)C(=O)N[C@@H](Cc1ccccc1)C(=O)N2)C(=O)N[C@@H](Cc1csc2ccccc12)C(=O)N[C@@H](CCC(N)=O)C(N)=O` (stereo partly drawn) [I-1328, PL3-Asp-Npg-B5-Asp-Asp-Ala-Ala-Phe-Phe-PyrS2-2OMeF-BztA-Gln-NH2] yielded a solubility at 15 min of 26 µM (≈ 51.4 µg/mL).

The compound `CC(=O)N1CCC[C@]12CC=CCCCC1(CCCC=CCCCOC(=O)N3CC[C@@](C(=O)N[C@@H](CC4CCCCC4)C(=O)N[C@@H](Cc4csc5ccccc45)C(=O)N[C@@H](CCC(N)=O)C(N)=O)(C3)NC(=O)[C@H](CC(N)=O)NC(=O)[C@H](Cc3ccccc3)NC(=O)[C@H](C)NC(=O)[C@H](C)NC(=O)[C@H](CC(=O)O)NC(=O)[C@H](CC(=O)O)NC1=O)NC(=O)[C@H](CC(C)(C)C)NC(=O)[C@H](CC(=O)O)NC2=O` (stereo partly drawn) [I-1329, PL3-Asp-Npg-B5-Asp-Asp-Ala-Ala-Phe-Asn-PyrS2-Cha-BztA-Gln-NH2] displayed a solubility at 15 min of 45 µM (≈ 86.3 µg/mL).

`CC(=O)N1CCC[C@]12CC=CCCCC1(CCCC=CCCCOC(=O)N3CC[C@@](C(=O)N[C@@H](CC4CCCCC4)C(=O)N[C@@H](Cc4csc5ccccc45)C(=O)N[C@@H](CCC(N)=O)C(N)=O)(C3)NC(=O)[C@H](Cc3ccccc3)NC(=O)[C@H](Cc3ccccc3)NC(=O)[C@H](C)NC(=O)[C@H](C)NC(=O)[C@H](CC(=O)O)NC(=O)[C@H](CC(=O)O)NC1=O)NC(=O)[C@H](CC(C)(C)C)NC(=O)[C@H](CC(=O)O)NC2=O` (stereo partly drawn) [I-1331, PL3-Asp-Npg-B5-Asp-Asp-Ala-Ala-Phe-Phe-PyrS2-Cha-BztA-Gln-NH2]: the “Solubility” value worked out at 10 µM (≈ 19.5 µg/mL).

Regarding `CC(=O)N1CCC[C@]12CC=CCCCC1(CCCC=CCCCOC(=O)N3CC[C@@](C(=O)N[C@@H](Cc4ccccc4Cl)C(=O)N[C@@H](Cc4csc5ccccc45)C(=O)N[C@@H](CCC(N)=O)C(N)=O)(C3)NC(=O)[C@H](CC(C)C)NC(=O)[C@H](Cc3ccccc3)NC(=O)[C@H](C)NC(=O)[C@H](C)NC(=O)[C@H](Cc3cccc(C(=O)O)c3)NC(=O)[C@H](CC(=O)O)NC1=O)NC(=O)[C@H](CC(C)(C)C)NC(=O)[C@H](CC(=O)O)NC2=O` (stereo partly drawn) [I-1332, PL3-Asp-Npg-B5-Asp-3COOHF-Ala-Ala-Phe-Leu-PyrS2-2C1F-BztA-Gln-NH2], the solubility at 15 min is 13 µM (≈ 26.3 µg/mL).
